Source: publication PMC7920280, “The Multi-Targeting Ligand ST-2223 with Histamine H3 Receptor and Dopamine D2/D3 Receptor Antagonist Properties Mitigates Autism-Like Repetitive Behaviors and Brain Oxidative Stress in Mice” (International Journal of Molecular Sciences, 2021)

How the values were obtained:
Assay type in all cases: in vivo
BTBR and B6 mice [1] = experiment: Marble burying task (MBT); settings: MEM 5 mg/kg; for percentage of marbles buried vs vehicle-treated B6 mice: i.p., ST-2223 2.5, 5, 10 mg/kg; for percentage of marbles buried vs vehicle-treated BTBR mice: i.p. 30-45 min before, ST-2223 2.5, 5 and 10 mg/kg, ARP 1 mg/kg
Protocol: (§1) The drugs tested included ST-2223 [N-(4-(4-(2-methoxyphenyl)piperazin-1-yl)butyl)-6-(3-(piperidin-1-yl)propoxy)-2-naphthamide] that was designed and synthesized in the Institute of Pharmaceutical and Medicinal Chemistry, Heinrich Heine University Düsseldorf, Germany, and in accordance with previously described methodologies (Supplementary Materials). Aripiprazole (ARP) (1 mg/kg, i.p.) and memantine (MEM, 5 mg/kg, i.p.), as reference drugs, were purchased from Sigma-Aldrich (St. Louis, MO, USA). The CNS-penetrant H3R agonist (R)-α-methylhistamine (RAM, 10 mg/kg, i.p.) was purchased from Sigma-Aldrich, St. Louis, MO, USA. T. Protease and the phosphatase inhibitor cocktail were procured from Thermo Scientific, USA. The assay kit for reduced glutathione (GSH) was obtained from Sigma-Aldrich (St. Louis, MO, USA). The lipid peroxidation assay kit for estimation of malondialdehyde (MDA) was purchased from North West Life Science (Vancouver, WA, USA). The assay kits for superoxide dismutase (SOD) and catalase (CAT) were purchased from Cayman Chemical (Ann Arbor, MI, USA). The drugs were prepared daily using 1% dimethyl sulfoxide (DMSO) in 0.9% saline, for intraperitoneal (i.p.) administration at a volume of 10 mL/kg of body weight. Vehicle treatment consisted of 1% DMSO in 0.9% normal saline. All drugs were i.p. administered 30 min before the behavioral test. The doses of these drugs were chosen based on previous reports. Neurobehavioral assessment was performed blindly with respect to experimental group and drug administration.
The MBT is used for testing repetitive and compulsive behaviors as it accurately reflects repetitive digging behavior [95, 96]. The test was performed as described previously, with slight modifications. Briefly, cages (26 cm × 48 cm × 20 cm) were filled with fresh, unscented mouse bedding material to a depth of 5 cm, on top of which 20 marbles were placed in 4 rows of 5 marbles each (15 mm diameter). Before placing the marbles, the bedding surface was leveled by placing another cage of the same size onto the surface of the bedding and then each mouse was individually added for 10 min habituation. After habituation, the mouse was removed, and the marbles were carefully overlaid. The same mouse was then returned to its designated test cage and allowed to explore for 30 min. The total number of marbles buried (>50% marble covered by the bedding material) was determined at the end of the session.

BTBR and B6 mice [2] = experiment: Self-grooming paradigm (SGP); settings: for time spent self-grooming vs vehicle-treated B6 mice / time spent self-grooming vs vehicle-treated BTBR mice: i.p., MEM 5 mg/kg, ARP 1 mg/kg; for time spent self-grooming vs vehicle-treated B6 mice: ST-2223 2.5, 5 and 10 mg/kg; for time spent self-grooming vs vehicle-treated BTBR mice: ST-2223 5 and 10 mg/kg
Protocol: as §1
In the SGP test, mice were scored for spontaneous grooming behaviors. […] To measure SGP, each mouse was placed individually in a standard clear plastic cage (28 cm wide × 17 cm long × 12 cm high) for a total of 20 min. Mice were allowed to freely explore the cage for the entire test, the first 10 min served as a habituation period. After 10 min habituation, each mouse was scored with a stopwatch for 10 min for cumulative time spent grooming all body regions. Grooming behavior included head washing, body grooming, genital/tail grooming and paw and leg licking. The observer sat approximately 1 m from the test cage during the second 10 min of testing.

malondialdehyde (MDA) = experiment: Malondialdehyde (MDA) assay in brain parts of treated BTBR mice; settings: i.p., ST-2223 5 mg/kg, RAM 10 mg/kg, ARP 1 mg/kg, MEM 5 mg/kg, mean ± SEM; for MDA, Striatum: n = 3-6, BTBR vehicle 52.7 ± 3.4; for MDA, Hippocampus: n = 3-6, BTBR vehicle 53.8 ± 2.9; for MDA, Cerebellum: n = 3-6, BTBR vehicle 54.0 ± 6.4; for MDA, Prefrontal Cortex: n = 3-6, BTBR vehicle 58.3 ± 1.8
Protocol: (§2) At the end of the behavioral assessments, the animals were sacrificed following previously published protocols. Animals were anesthetized with pentobarbital (40 mg/kg, body weight, i.p.), sacrificed, and perfused via intracardial infusion to wash out the blood, using 1× PBS (0.01 M phosphate buffer, 0.0027 M potassium chloride and 0.137 M sodium chloride) at pH 7.4. […] The brains were then quickly removed and placed on an ice plate. The cerebellum, hippocampus, prefrontal and striatum were excised from the brain and snap-frozen in liquid nitrogen for further use in biochemical assessments. On the day of the biochemical tests, the tissues were homogenized using radioimmunoprecipitation assay (RIPA) buffer (50 mM Tris HCl, pH 7.4, 140 mM NaCl, 1 mM EDTA, 0.5% Triton X-100 and 0.5% sodium deoxycholate) supplemented with protease and phosphatase inhibitors. Then, the homogenates were centrifuged at 14,000 rpm for 30 min (4 °C), and the supernatant was used for evaluation of lipid peroxidation, glutathione, and antioxidant enzymes using spectrophotometric measurements and enzyme-linked immunosorbent assays (ELISA)..
This assay was performed to estimate the amount of lipid peroxidation in experimental animals using an MDA detection kit following the manufacturer’s instructions, as previously described in our laboratories. Briefly, 250 μL of sample or calibrator was incubated with thiobarbituric acid, followed by rigorous vortexing. After 1 h incubation at 60 °C, the mixture was centrifuged at 10,000× g for 2–3 min and the reaction mixture was transferred to a cuvette. Spectra were measured at 532 nm and the results are expressed as µM MDA/mg protein.

[3] = test system: superoxide dismutase (SOD); experiment: Superoxide dismutase (SOD) activity in brain parts of treated BTBR mice; settings: i.p., ST-2223 5 mg/kg, RAM 10 mg/kg, ARP 1 mg/kg, MEM 5 mg/kg, mean ± SEM; for SOD, Prefrontal Cortex: n = 3-6, BTBR vehicle 45.1 ± 2.8; for SOD, Hippocampus: n = 3-6, BTBR vehicle 49.5 ± 0.5; for SOD, Cerebellum: n = 3-6, BTBR vehicle 49.7 ± 1.3; for SOD, Striatum: n = 3-6, BTBR vehicle 51.8 ± 1.2
Protocol: as §2
To assess the activity of antioxidant enzymes Superoxide dismutase (SOD) and Catalase (CAT), commercially available kits were used, following the manufacturer’s instructions, and as previously reported. Cayman assay kits (Cayman Chemicals Company, Ann Arbor, MI, USA) were used to assess antioxidant enzyme (superoxide dismutase (SOD) and catalase (CAT)) activities in experimental animals. Catalase assay: Twenty microliters of samples or standards and 30 μL of methanol was added to the assay buffer (100 μL) in 96-well plates. To this mixture, twenty microliter of hydrogen peroxide was added and incubated for 20 min at room temperature (RT) to initiate the reaction. Following incubation, 30 μL of potassium hydroxide was used to terminate the reaction, followed by subsequent addition of catalase purpald (30 μL) and catalase potassium periodate (10 μL). The plate was incubated for 5 min at room temperature in a shaker and the plate was read at 540 nm using a microplate reader. Catalase activity was expressed as nmol/min/mg protein. Superoxide dismutase assay: ten microliters of sample or standard was added in 96-well plates. Twenty microliters of xanthine oxidase were added to initiate the reaction. The reaction mixture was mixed for few seconds and incubated (covered) for 30 min at room temperature (RT). Absorbance was read at 450 nm using microplate reader. The activity of SOD was expressed as units/mg protein.

Structure (SMILES) | percentage of marbles buried vs vehicle-treated B6 mice (BTBR and B6 mice [1]) | percentage of marbles buried vs vehicle-treated BTBR mice (BTBR and B6 mice [1]) | time spent self-grooming vs vehicle-treated B6 mice (BTBR and B6 mice [2]) | time spent self-grooming vs vehicle-treated BTBR mice (BTBR and B6 mice [2]; BTBR mice) | MDA, Striatum (malondialdehyde (MDA)) [µM MDA/mg protein] | MDA, Hippocampus (malondialdehyde (MDA)) [µM MDA/mg protein] | MDA, Cerebellum (malondialdehyde (MDA)) [µM MDA/mg protein] | MDA, Prefrontal Cortex (malondialdehyde (MDA)) [µM MDA/mg protein] | SOD, Prefrontal Cortex [3] [units/mg protein] | SOD, Hippocampus [3] [units/mg protein] | SOD, Cerebellum [3] [units/mg protein] | SOD, Striatum [3] [units/mg protein] | self-grooming behavior vs vehicle-treated BTBR mice (BTBR and B6 mice [2]; BTBR mice, ST-2223 2.5 mg/kg i.p.)
CC12CC3CC(C)(C1)CC(N)(C3)C2 [MEM, memantine] | not significant | significantly reduced | significantly reduced | significantly reduced | 32.6 ± 4.1 | 32.8 ± 3.4 | 26.7 ± 3.6 | 40.0 ± 5.7 | 44.9 ± 2.2 | 41.4 ± 3.4 | 64.4 ± 3.1 | 66.47 ± 4.4 | 
COc1ccccc1N1CCN(CCCCNC(=O)c2ccc3cc(OCCCN4CCCCC4)ccc3c2)CC1 [ST-2223, N-(4-(4-(2-methoxyphenyl)piperazin-1-yl)butyl)-6-(3-(piperidin-1-yl)propoxy)-2-naphthamide] | did not alter | significantly decreased | did not alter | significantly, and dose-dependently, decreased | 34.5 ± 5.5 | 38.1 ± 3.1 | 35.2 ± 1.8 | 39.1 ± 3.2 | 43.2 ± 3.4 | 48.1 ± 4.2 | 64.3 ± 1.0 | 51.2 ± 7.7 | failed to significantly mitigate
O=C1CCc2ccc(OCCCCN3CCN(c4cccc(Cl)c4Cl)CC3)cc2N1 [ARP, aripiprazole] |  | significantly reduced | did not alter |  | 41.2 ± 1.4 | 32.9 ± 4.1 | 36.8 ± 1.8 | 43.0 ± 2.5 | 54.0 ± 5.2 | 51.8 ± 2.0 | 56.4 ± 1.1 | 65.7 ± 7.7 | 
